According to the supplement of paper PMC11451515:

Assays:
Conditions in all cases: 48 h
NOMO1 [1] = test: cell viability relative to DMSO control; higher = less cytotoxic
In short: (§1)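 Viability is expressed as a percentage of DMSO wells within each plate, and cell-free wells serve as background. Seeding densities in the 1536-well plates (5 μl) were 500 cells/well for NOMO1 or SEM leukemia cells and 1000 cells/well for P12-Ichikawa. Each line was adapted for at least four passages in each medium. Library compounds in DMSO were pin-dosed at 47 μM to 0.79 nM (11 points, threefold), and CellTiter-Glo One luminescence was read after 48 h at 37°C.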

P12-Ichikawa [2] = test: as above
In short: as §1

SEM cells [3] = test: as above
In short: as §1

SEM cells [4] = test: AUC of viability dose-response curve (% viability x log10 dose units); higher = less sensitive
In short: (§2)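 Leukemia cells adapted to each medium were seeded in 1536-well plates (500 or 1000 cells/well). They were dosed with library compounds in DMSO at 11 threefold doses, 47 μM to 0.79 nM, for 48 h at 37°C. CellTiter-Glo One luminescence was normalised per plate to DMSO and cell-free wells. Area under the curve was integrated by trapezoidal rule over log10 doses on a four-parameter log-logistic fit; curves exceeding full viability were scaled and curves failing quality control removed.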

NOMO1 [5] = test: as above
In short: as §2

P12-Ichikawa [6] = test: as above
In short: as §2

CNC(=O)c1ccc(N2C(=S)N(c3ccc(C#N)c(C(F)(F)F)c3)C(=O)C23CCC3)cc1F
cell viability [%]
Conditions | NOMO1 [1] | P12-Ichikawa [2] | SEM cells [3]
HPLM + 10% dialyzed FBS, 0.000781 µM | 90.5 | 86.5 | 87.3
HPLM + 10% dialyzed FBS, 0.00234 µM | 90.2 | 92.3 | 98.8
HPLM + 10% dialyzed FBS, 0.00702 µM | 91.7 | 101 | 95.9
HPLM + 10% dialyzed FBS, 0.0211 µM | 33.3 | 9.68 | 19.5
HPLM + 10% dialyzed FBS, 0.0632 µM | 95.1 | 108 | 92.3
HPLM + 10% dialyzed FBS, 0.19 µM | 105 | 101 | 97
HPLM + 10% dialyzed FBS, 0.569 µM | 103 | 97 | 97.8
HPLM + 10% dialyzed FBS, 1.71 µM | 107 | 103 | 95.2
HPLM + 10% dialyzed FBS, 5.12 µM | 92.6 | 103 | 101
HPLM + 10% dialyzed FBS, 15.4 µM | 93.2 | 107 | 96.9
HPLM + 10% dialyzed FBS, 46.1 µM | 111 | 102 | 97.3
RPMI 5 mM glucose + 10% FBS, 0.000781 µM | 80.5 | 88 | 84.7
RPMI 5 mM glucose + 10% FBS, 0.00234 µM | 88.3 | 86.8 | 83.4
RPMI 5 mM glucose + 10% FBS, 0.00702 µM | 83.6 | 101 | 104
RPMI 5 mM glucose + 10% FBS, 0.0211 µM | 18.9 | 13.1 | 14.2
RPMI 5 mM glucose + 10% FBS, 0.0632 µM | 98.9 | 94.9 | 83
RPMI 5 mM glucose + 10% FBS, 0.19 µM | 88 | 98 | 98.3
RPMI 5 mM glucose + 10% FBS, 0.569 µM | 92 | 102 | 99.3
RPMI 5 mM glucose + 10% FBS, 1.71 µM | 86.6 | 99.6 | 91.7
RPMI 5 mM glucose + 10% FBS, 5.12 µM | 96 | 99.3 | 86.7
RPMI 5 mM glucose + 10% FBS, 15.4 µM | 88.4 | 103 | 98.3
RPMI 5 mM glucose + 10% FBS, 46.1 µM | 99.1 | 106 | 96.3
RPMI 5 mM glucose + 10% dialyzed FBS, 0.000781 µM | 84.9 | 75.4 | 84.3
RPMI 5 mM glucose + 10% dialyzed FBS, 0.00234 µM | 93.1 | 87.7 | 83
RPMI 5 mM glucose + 10% dialyzed FBS, 0.00702 µM | 108 | 88.6 | 104
RPMI 5 mM glucose + 10% dialyzed FBS, 0.0211 µM | 34.6 | 24.7 | 15.8
RPMI 5 mM glucose + 10% dialyzed FBS, 0.0632 µM | 100 | 97.7 | 102
RPMI 5 mM glucose + 10% dialyzed FBS, 0.19 µM | 90.6 | 96.6 | 101
RPMI 5 mM glucose + 10% dialyzed FBS, 0.569 µM | 95.2 | 92.7 | 96.3
RPMI 5 mM glucose + 10% dialyzed FBS, 1.71 µM | 93.1 | 91 | 96.9
RPMI 5 mM glucose + 10% dialyzed FBS, 5.12 µM | 95.6 | 97.8 | 98
RPMI 5 mM glucose + 10% dialyzed FBS, 15.4 µM | 91.7 | 96.7 | 96.3
RPMI 5 mM glucose + 10% dialyzed FBS, 46.1 µM | 103 | 98.5 | 111

SEM cells [4]
Conditions | AUC of viability dose-response curve
HPLM + 10% dialyzed FBS | 425
RPMI 5 mM glucose + 10% FBS | 408
RPMI 5 mM glucose + 10% dialyzed FBS | 411

Nc1nc(Cl)nc2c1ncn2[C@H]1C[C@H](O)[C@@H](CO)O1
SEM cells [3], HPLM + 10% dialyzed FBS
Conditions | cell viability [%]
0.000781 µM | 114
0.00234 µM | 119
0.00702 µM | 115
0.0211 µM | 133
0.0632 µM | 115
0.19 µM | 15.7
0.569 µM | 13.9
1.71 µM | 12.7
5.12 µM | 11.6
15.4 µM | 9.89
46.1 µM | 5.05

AUC of viability dose-response curve
Conditions | NOMO1 [5] | P12-Ichikawa [6] | SEM cells [4]
HPLM + 10% dialyzed FBS | 256 | 263 | 238
RPMI 5 mM glucose + 10% FBS | 270 | 254 | 226
RPMI 5 mM glucose + 10% dialyzed FBS | 257 | 272 | 212

NC(=O)c1ccc2[nH]ccc2c1
AUC of viability dose-response curve
Conditions | NOMO1 [5] | P12-Ichikawa [6] | SEM cells [4]
HPLM + 10% dialyzed FBS | 440 | 440 | 444
RPMI 5 mM glucose + 10% FBS | 464 | 442 | 312
RPMI 5 mM glucose + 10% dialyzed FBS | 460 | 430 | 438

CO[C@H]1/C=C\C=C(\C)C(=O)NC2=CC(=O)C(NCCN(C)C)=C(C[C@@H](C)C[C@H](OC)[C@H](O)[C@@H](C)/C=C(/C)[C@@H]1OC(N)=O)C2=O
SEM cells [3], HPLM + 10% dialyzed FBS
Conditions | cell viability [%]
0.000781 µM | 108
0.00234 µM | 124
0.00702 µM | 118
0.0211 µM | 120
0.0632 µM | 122
0.19 µM | 60.8
0.569 µM | 31.6
1.71 µM | 25.3
5.12 µM | 25.5
15.4 µM | 23
46.1 µM | 6.44

AUC of viability dose-response curve
Conditions | NOMO1 [5] | P12-Ichikawa [6] | SEM cells [4]
HPLM + 10% dialyzed FBS | 305 | 362 | 279
RPMI 5 mM glucose + 10% FBS | 308 | 328 | 274
RPMI 5 mM glucose + 10% dialyzed FBS | 309 | 333 | 268

C=CC[C@@H]1/C=C(\C)C[C@H](C)C[C@H](OC)[C@H]2O[C@@](O)(C(=O)C(=O)N3CCCC[C@H]3C(=O)O[C@H](/C(C)=C/[C@@H]3CC[C@@H](O)[C@H](OC)C3)[C@H](C)[C@@H](O)CC1=O)[C@H](C)C[C@@H]2OC
SEM cells [3], HPLM + 10% dialyzed FBS
Conditions | cell viability [%]
0.000781 µM | 102
0.00234 µM | 125
0.00702 µM | 131
0.0211 µM | 123
0.0632 µM | 115
0.19 µM | 111
0.569 µM | 107
1.71 µM | 74.9
5.12 µM | 60.9
15.4 µM | 30.8
46.1 µM | 100

AUC of viability dose-response curve
Conditions | NOMO1 [5] | P12-Ichikawa [6] | SEM cells [4]
HPLM + 10% dialyzed FBS | 412 | 466 | 400
RPMI 5 mM glucose + 10% FBS | 453 | 448 | 376
RPMI 5 mM glucose + 10% dialyzed FBS | 436 | 449 | 362

CN(C)CCc1ccc(O)cc1
SEM cells [3], HPLM + 10% dialyzed FBS
Conditions | cell viability [%]
0.000781 µM | 114
0.00234 µM | 120
0.00702 µM | 134
0.0211 µM | 130
0.0632 µM | 137
0.19 µM | 135
0.569 µM | 116
1.71 µM | 140
5.12 µM | 113
15.4 µM | 135
46.1 µM | 110

AUC of viability dose-response curve
Conditions | NOMO1 [5] | P12-Ichikawa [6] | SEM cells [4]
HPLM + 10% dialyzed FBS | 454 | 448 | 471
RPMI 5 mM glucose + 10% FBS | 460 | 446 | 455
RPMI 5 mM glucose + 10% dialyzed FBS | 461 | 450 | 471
